Measurements as given in a compilation of properties of binary mixtures (doi:10.1007/s10973-023-12194-1).

Assay: xn = mol fraction of the nth substance listed
Settings: 101.3 kPa

CCCC[NH3+].O=[N+]([O-])[O-] + O
x2 = 0.435
Settings | viscosity [mPa·s]
283.15 K | 43.41
288.15 K | 35.87
293.15 K | 29.92
303.15 K | 21.45
308.15 K | 18.52
313.15 K | 16.04
318.15 K | 14.65
323.15 K | 12.38
328.15 K | 11.26
333.15 K | 9.535
338.15 K | 8.605
343.15 K | 7.11
348.15 K | 6.46
353.15 K | 5.89
358.15 K | 5.4
363.15 K | 4.98
368.15 K | 4.6
373.15 K | 4.266

CC[NH3+].O=[N+]([O-])[O-] + O
x2 = 0.574
Settings | viscosity [mPa·s]
283.15 K | 8.965
288.15 K | 6.679
293.15 K | 6.018
298.15 K | 5.487
313.15 K | 4.258
318.15 K | 3.893
323.15 K | 3.622
333.15 K | 3.173
338.15 K | 3.007
348.15 K | 1.807
353.15 K | 1.695
358.15 K | 1.589
363.15 K | 1.492
368.15 K | 1.434
373.15 K | 1.343
